PubChem BioAssay AID328 (DTP/NCI, 2004)
“And” between values parts separate entries of the source, which are not always exact repeats. Identical values can stand only once. Toxic doses and inconclusive results are not listed. Starred links: 1 amine or outer side, 2 acyl side, 3 side chain; linkers in the order of their positions; H or OH if unused. Positions of bridges follow the written chain, without caps; N, C: chain ends. Non-standard residues stand in square brackets, D forms with d. Residues, ends and D or L forms follow the SMILES beside them. Chains are numbered I, II in the order given. Actinocin(1to9) = Cc1c2oc3c(C)ccc(C(=O)[*:2])c3nc-2c(C(=O)[*:1])c(N)c1=O; X2 = CC(=O)OC1CC(C)N([*:1])C1C(=O)[*:2]; X1 = CC1CC(=O)C(C(=O)[*:2])N1[*:1]; NMeV = CN[CH](C(=O)O)C(C)C; NMeA = CN[CH](C)C(=O)O; Sar = CNCC(=O)O

System: BDF1 mice, P388 leukemia ip, median survival T/C
Experiment: NCI In Vivo Anticancer Drug Screen. Data for tumor model P388 Leukemia (intraperitoneal) in B6D2F1 (BDF1) mice
Settings: endpoint: median survival time, higher = longer survival
Procedure, shortened: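 Each value expresses how treatment altered survival: treated-mouse outcome over vehicle-mouse outcome, both groups bearing the transplanted tumour.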

[1] = dose: 100.0 mg/kg/injection, schedule: Q04DX003 (ip), vehicle: saline
[2] = dose: 400.0 mg/kg/injection, schedule: Q04DX003 (ip), vehicle: saline
[3] = dose: 100.0 mg/kg/injection, schedule: Q01DX009 (ip), vehicle: saline with Tween-80
[4] = dose: 200.0 mg/kg/injection, schedule: Q01DX009 (ip), vehicle: saline with Tween-80
[5] = dose: 400.0 mg/kg/injection, schedule: Q01DX009 (ip), vehicle: saline with Tween-80
[6] = dose: 100.0 mg/kg/injection, schedule: Q04DX003 (ip), vehicle: saline with Tween-80
[7] = dose: 200.0 mg/kg/injection, schedule: Q04DX003 (ip), vehicle: saline with Tween-80
[8] = dose: 400.0 mg/kg/injection, schedule: Q04DX003 (ip), vehicle: saline with Tween-80

## CC(CS(=O)(=O)O)N1CCN(CCO)CC1 (configuration not stated)
[1]
  T/C: 95 % of control
dose: 200.0 mg/kg/injection, schedule: Q04DX003 (ip), vehicle: saline
  T/C: 100 % of control
[2]
  T/C: 100 % of control

## CC(=O)OC1CC(C)N2C(=O)C(C(C)C)NC(=O)C(NC(=O)c3ccc(C)c4oc5c(C)c(=O)c(N)c(C(=O)NC6C(=O)NC(C(C)C)C(=O)N7C(C)CC(=O)C7C(=O)N(C)CC(=O)N(C)C(C)C(=O)OC6C)c-5nc34)C(C)OC(=O)C(C(C)C)N(C)C(=O)CN(C)C(=O)C12 (configuration not stated) (I: TV[X1][Sar][NMeA] / II: TV[X2][Sar][NMeV]; ester I:1-I:C, II:1-II:C; linker I:N-II:N via Actinocin(1to9); configuration not given here)
dose: 0.05 mg/kg/injection, schedule: Q01DX009 (ip), vehicle: saline + alcohol
  T/C: 100 % of control
dose: 0.1 mg/kg/injection, schedule: Q01DX009 (ip), vehicle: saline + alcohol
  T/C: 117 % of control
dose: 0.15 mg/kg/injection, schedule: Q04DX003 (ip), vehicle: saline + alcohol
  T/C: 98 % of control
dose: 0.3 mg/kg/injection, schedule: Q04DX003 (ip), vehicle: saline + alcohol
  T/C: 113 % of control
dose: 0.4 mg/kg/injection, schedule: Q01DX009 (ip), vehicle: saline + alcohol
  T/C: 156 % of control
dose: 0.8 mg/kg/injection, schedule: Q01DX009 (ip), vehicle: saline + alcohol
  T/C: 189 % of control
dose: 1.2 mg/kg/injection, schedule: Q04DX003 (ip), vehicle: saline + alcohol
  T/C: 153 % of control
dose: 2.4 mg/kg/injection, schedule: Q04DX003 (ip), vehicle: saline + alcohol
  T/C: 202 % of control
dose: 6.4 mg/kg/injection, schedule: Q01DX001 (ip), vehicle: saline + alcohol
  T/C: 159 % of control

## Nc1ccccc1SC1CC(=O)N(c2ccc(Br)c(Cl)c2)C1=O (configuration not stated)
dose: 0.1 mg/kg/injection, schedule: Q01DX005 (ip), vehicle: saline with Tween-80
  T/C: 98 % of control
dose: 0.2 mg/kg/injection, schedule: Q01DX005 (ip), vehicle: saline with Tween-80
  T/C: 93 % of control
dose: 0.4 mg/kg/injection, schedule: Q01DX005 (ip), vehicle: saline with Tween-80
  T/C: 100 % of control
dose: 1.5 mg/kg/injection, schedule: Q01DX005 (ip), vehicle: saline with Tween-80
  T/C: 95 % of control
dose: 3.0 mg/kg/injection, schedule: Q01DX005 (ip), vehicle: saline with Tween-80
  T/C: 90 % of control

## CN(C)[C@@H]1C(=O)C(C(=O)NCN2CCN(C(=N)N=C(N)N)CC2)=C(O)[C@@]2(O)C(=O)C3=C(O)c4c(O)cccc4[C@@](C)(O)[C@H]3C[C@@H]12
dose: 0.1 mg/kg/injection, schedule: Q04DX003 (ip), vehicle: saline
  T/C: 124 % of control
dose: 1.0 mg/kg/injection, schedule: Q04DX003 (ip), vehicle: saline
  T/C: 120 % of control
dose: 5.0 mg/kg/injection, schedule: Q04DX003 (ip), vehicle: saline
  T/C: 155 % of control

## N#CS/C=C\C(N)=O
dose: 1.5 mg/kg/injection, schedule: Q01DX009 (ip), vehicle: Klucel (hydroxypropylcellulose) (HPC)
  T/C: 100 % of control
dose: 1.5 mg/kg/injection, schedule: Q04DX003 (ip), vehicle: Klucel (hydroxypropylcellulose) (HPC)
  T/C: 95 % of control
dose: 3.0 mg/kg/injection, schedule: Q01DX009 (ip), vehicle: Klucel (hydroxypropylcellulose) (HPC)
  T/C: 91 % of control
dose: 3.0 mg/kg/injection, schedule: Q04DX003 (ip), vehicle: Klucel (hydroxypropylcellulose) (HPC)
  T/C: 95 % of control
dose: 6.0 mg/kg/injection, schedule: Q01DX009 (ip), vehicle: Klucel (hydroxypropylcellulose) (HPC)
  T/C: 89 % of control and 91 % of control
dose: 6.0 mg/kg/injection, schedule: Q04DX003 (ip), vehicle: Klucel (hydroxypropylcellulose) (HPC)
  T/C: 100 % of control
dose: 6.25 mg/kg/injection, schedule: Q04DX003 (ip), vehicle: Klucel (hydroxypropylcellulose) (HPC)
  T/C: 90 % of control
dose: 12.5 mg/kg/injection, schedule: Q04DX003 (ip), vehicle: Klucel (hydroxypropylcellulose) (HPC)
  T/C: 100 % of control

## N=[N+]=CC(=O)OCC(N)C(=O)O (configuration not stated)
dose: 3.13 mg/kg/injection, schedule: Q01DX010 (ip), vehicle: saline
  T/C: 150 % of control
dose: 6.25 mg/kg/injection, schedule: Q01DX010 (ip), vehicle: saline
  T/C: 150 % of control and 165 % of control
dose: 10.0 mg/kg/injection, schedule: Q01DX010 (ip), vehicle: water
  T/C: 120 % of control
dose: 12.5 mg/kg/injection, schedule: Q01DX010 (ip), vehicle: saline
  T/C: 195 % of control and 200 % of control
dose: 15.0 mg/kg/injection, schedule: Q01DX010 (ip), vehicle: water
  T/C: 120 % of control
dose: 25.0 mg/kg/injection, schedule: Q01DX010 (ip), vehicle: saline
  T/C: 115 % of control

## O=C1C(NCCO)=C(N2CC2)C(=O)C(NCCO)=C1N1CC1
dose: 0.18 mg/kg/injection, schedule: Q01DX009 (ip), vehicle: saline
  T/C: 248 % of control and 93 % of control
dose: 0.37 mg/kg/injection, schedule: Q01DX009 (ip), vehicle: saline
  T/C: 275 % of control and 203 % of control
dose: 0.75 mg/kg/injection, schedule: Q01DX009 (ip), vehicle: saline
  T/C: 194 % of control

## Nc1ccc2c(c1)Cc1cc(Br)ccc1-2
dose: 100.0 mg/kg/injection, schedule: Q04DX003 (ip), vehicle: Klucel (hydroxypropylcellulose) (HPC)
  T/C: 104 % of control
dose: 200.0 mg/kg/injection, schedule: Q04DX003 (ip), vehicle: Klucel (hydroxypropylcellulose) (HPC)
  T/C: 100 % of control
dose: 400.0 mg/kg/injection, schedule: Q04DX003 (ip), vehicle: Klucel (hydroxypropylcellulose) (HPC)
  T/C: 100 % of control

## O=C(O)Cn1c(C(F)(F)F)nc2nc(Cl)c(Cl)nc21
[3]
  T/C: 90 % of control
[4]
  T/C: 90 % of control
[5]
  T/C: 100 % of control

## CC(=O)N1C(=O)NC(=O)C1(C)c1cccs1 (configuration not stated)
dose: 50.0 mg/kg/injection, schedule: Q01DX009 (ip), vehicle: saline with Tween-80
  T/C: 109 % of control
[3]
  T/C: 111 % of control
[6]
  T/C: 100 % of control
[4]
  T/C: 109 % of control
[7]
  T/C: 90 % of control
[8]
  T/C: 90 % of control

## CC(C)(O)c1ccccc1S(=O)(=O)c1ccccc1C(C)(C)O
dose: 100.0 mg/kg/injection, schedule: Q04DX002 (ip), vehicle: saline with Tween-80
  T/C: 94 % of control
dose: 200.0 mg/kg/injection, schedule: Q04DX002 (ip), vehicle: saline with Tween-80
  T/C: 93 % of control
dose: 400.0 mg/kg/injection, schedule: Q04DX002 (ip), vehicle: saline with Tween-80
  T/C: 89 % of control

## COC(=O)C(NC(=O)OCc1ccccc1)C(=O)OC
[3]
  T/C: 104 % of control
[6]
  T/C: 104 % of control
[4]
  T/C: 95 % of control
[7]
  T/C: 109 % of control
[5]
  T/C: 95 % of control
[8]
  T/C: 100 % of control

## O=NN(CCBr)C(=O)NCCBr
dose: 30.0 mg/kg/injection, schedule: Q01DX009 (ip), vehicle: gum acacia
  T/C: 158 % of control
dose: 44.0 mg/kg/injection, schedule: Q01DX009 (ip), vehicle: gum acacia
  T/C: 158 % of control
dose: 50.0 mg/kg/injection, schedule: Q01DX009 (ip), vehicle: gum acacia
  T/C: 196 % of control
dose: 67.0 mg/kg/injection, schedule: Q01DX009 (ip), vehicle: gum acacia
  T/C: 169 % of control and 191 % of control
dose: 67.0 mg/kg/injection, schedule: Q04DX003 (ip), vehicle: gum acacia
  T/C: 165 % of control
dose: 100.0 mg/kg/injection, schedule: Q01DX009 (ip), vehicle: Klucel (hydroxypropylcellulose) (HPC)
  T/C: 112 % of control
dose: 100.0 mg/kg/injection, schedule: Q01DX009 (ip), vehicle: gum acacia
  T/C: 192 % of control and 200 % of control
dose: 100.0 mg/kg/injection, schedule: Q04DX003 (ip), vehicle: gum acacia
  T/C: 173 % of control
[1]
  T/C: 118 % of control
dose: 150.0 mg/kg/injection, schedule: Q01DX009 (ip), vehicle: gum acacia
  T/C: 226 % of control
dose: 150.0 mg/kg/injection, schedule: Q04DX003 (ip), vehicle: gum acacia
  T/C: 230 % of control
dose: 200.0 mg/kg/injection, schedule: Q01DX009 (ip), vehicle: Klucel (hydroxypropylcellulose) (HPC)
  T/C: 154 % of control
dose: 400.0 mg/kg/injection, schedule: Q01DX009 (ip), vehicle: Klucel (hydroxypropylcellulose) (HPC)
  T/C: 170 % of control
[2]
  T/C: 190 % of control

## CN=C(NCCCOC)c1ccc(NC(=O)Nc2ccc(NC(=O)Nc3ccc(C(=NC)NCCCOC)cc3)cc2)cc1
dose: 6.25 mg/kg/injection, schedule: Q01DX005 (ip), vehicle: Klucel (hydroxypropylcellulose) (HPC)
  T/C: 104 % of control
dose: 12.5 mg/kg/injection, schedule: Q01DX005 (ip), vehicle: Klucel (hydroxypropylcellulose) (HPC)
  T/C: 108 % of control
dose: 25.0 mg/kg/injection, schedule: Q01DX005 (ip), vehicle: Klucel (hydroxypropylcellulose) (HPC)
  T/C: 115 % of control
dose: 50.0 mg/kg/injection, schedule: Q01DX005 (ip), vehicle: Klucel (hydroxypropylcellulose) (HPC)
  T/C: 121 % of control
dose: 100.0 mg/kg/injection, schedule: Q01DX005 (ip), vehicle: Klucel (hydroxypropylcellulose) (HPC)
  T/C: 107 % of control
